By Km is commonly meant the substrate concentration at which the rate is half of its maximum.

From paper PMC11500593, “Molecular cloning and biochemical characterization of indole-3-acetic acid methyltransferase from Japanese star anise (Illicium anisatum)” (Plant Biotechnology, 2024) come the findings set out here.

The subject of the test is T1, IaIAMT.
T1 construct: full-length cDNA from leaf RNA, N-terminal MBP fusion (pCold-MBP), E. coli BL21(DE3), purified on gelatinized corn starch; MBP cleavage not mentioned
Kind of test: radiochemical methyltransferase assay, […]-SAM, ethyl acetate extraction, scintillation counting. Conditions: co-substrate [Me-14C]-SAM; sodium phosphate pH 7.0; 25°C; 10 min; IAA 0–400 µM; MBP fusion; read-out: apparent Km. Format: biochemical, Illicium anisatum.

Each structure is given as a SMILES string.

As for `O=C(O)Cc1c[nH]c2ccccc12` [IAA, indole-3-acetic acid], the Km amounted to 122 ± 32.9 µM.
